The values below are quoted from earlier work in patent US4925831A, “Aminoalkyl naphthalenediols as host resistance enhancers against viral infection” (priority 1987, dated 1990).

The subject of one data set is AIDS or ARC patients. Conditions: result in words.
Assay in data set [1]: not given
This is another data set of the same source.

The test system of data set [2] is HIV reverse transcriptase. Conditions: result in words.
The subject of the next data set is HIV. Conditions: result in words.
For data set [3] the following is noted: in vivo.

Entries after “also recorded” stand apart in the source; their conditions may differ. Like-named read-outs stand apart in the source and are kept apart here.

Take `CO[C@H]1/C=C/O[C@@]2(C)Oc3c(C)c(O)c4c(c3C2=O)C2=NC3(CCN(CC(C)C)CC3)NC2=C(NC(=O)/C(C)=C\C=C\[C@H](C)[C@H](O)[C@@H](C)[C@@H](O)[C@@H](C)[C@H](OC(C)=O)[C@@H]1C)C4=O` [Ansamycin, rifabutin]: the clinical efficacy entry with AIDS or ARC patients is on record as “some efficacy in treating AIDS patients with an opportunistic infection caused by the bacterium Mycobacterium aviumintracellulare”. Turning to `Cc1cn([C@H]2C[C@H](N=[N+]=[N-])[C@@H](CO)O2)c(=O)[nH]c1=O` [Azidothymidine, 3'-azido-3'-deoxythymidine], in the data set on AIDS or ARC patients, the clinical efficacy entry is “promise in prolonging lives of patients with AIDS or AIDS-related complex (ARC)”. For the same compound, the “adverse / toxic effects, tolerability” value (clinical, result in words) was “some toxicity, with anemia and headaches”; the “adverse / toxic effects, tolerability” value (clinical, result in words, listed as AZT) is reported as “virtually no toxic effects”. Also, in data set [1] (in vivo), the “half-life in the body” value is listed as “relatively short half-life in the body”. In addition, the oral absorption entry in data set [1] (oral) is on record as “Well absorbed orally”.

For `CC(C)(N1CC1C#N)N1CC1C(N)=O` (stereo not shown) [Azimexon], the clinical efficacy result in the data set with AIDS or ARC patients was “improvements in symptoms and immune function in patients with ARC but not AIDS”. In addition, the “adverse / toxic effects, tolerability” value (clinical, result in words) is given as “only toxic effect was mild hemolysis”. Take `CC(C)(S)[C@@H](N)C(=O)O` [D-Penicillamine, 3-mercapto-D-valine]: in the data set on AIDS or ARC patients, the clinical efficacy entry is on record as “Inhibits HIV reproduction in humans; also recorded: suppressed the virus”. The “adverse / toxic effects, tolerability” value (human, in vivo) is on record as “temporarily depressed T cell levels in 13 AIDS patients”.

In the case of `O=C(O)P(=O)(O)O` [Foscarnet, trisodium phosphonoformate], the “inhibition of HIV reverse transcriptase” value in data set [2] was “Inhibits HIV reverse transcriptase activity in vitro at levels pharmacologically acceptable in vivo”. Moreover, for the setting “human, in vivo”, the “adverse / toxic effects, tolerability” value is “serious side effects”.

With `CC(=O)Nc1ccc(C(=O)O)cc1.CC(=O)Nc1ccc(C(=O)O)cc1.CC(=O)Nc1ccc(C(=O)O)cc1.CC(O)CN(C)C.CC(O)CN(C)C.CC(O)CN(C)C.O=c1[nH]cnc2c1ncn2[C@@H]1O[C@H](CO)[C@@H](O)[C@H]1O` [Inosine pranobex], in the data set on AIDS or ARC patients, the clinical efficacy result was “improve immune function in ARC patients”. For the compound `NC(=O)c1ncn([C@@H]2O[C@H](CO)[C@@H](O)[C@H]2O)n1` [Ribavirin, 1β-D-ribofuranosyl-1,2,4-triazole-3-carboxamide], the clinical efficacy entry in the data set on AIDS or ARC patients was “inhibited viral replication and improved immune function in AIDS patients”. On to `Cc1ccc(C(=O)Nc2ccc(S(=O)(=O)O)c3cc(S(=O)(=O)O)cc(S(=O)(=O)O)c23)cc1NC(=O)c1cccc(NC(=O)Nc2cccc(C(=O)Nc3cc(C(=O)Nc4ccc(S(=O)(=O)O)c5cc(S(=O)(=O)O)cc(S(=O)(=O)O)c45)ccc3C)c2)c1` [Suramin], for which the “inhibition of HIV reverse transcriptase” value in data set [2] is reported as “Potent inhibitor of HIV reverse transcriptase”. Moreover, the clinical efficacy entry in the data set on AIDS or ARC patients is listed as “little or no evidence of clinical improvement or immunologic recovery”. Take “ammonium 21-tungsto-9-antimoniate [HPA-23]”: the “effect on HIV growth / infectivity” value in the data set on HIV is listed as “some tendency to check the growth of HIV”. The clinical efficacy entry in the data set on AIDS or ARC patients is on record as “no therapeutic benefit has been documented in AIDS patients”.

In the case of krestin, in data set [3], the toxic side effects result is “undesirable toxic side effects, such as granulomatous inflammation”. With lentinan, the toxic side effects result in data set [3] is recorded as “undesirable toxic side effects, such as granulomatous inflammation”. Take α-Interferon: the “effect on HIV growth / infectivity” value in the data set with HIV was “Checks the growth of HIV in vitro”. For the same compound, the clinical efficacy entry in the data set with AIDS or ARC patients is “induced tumor regression in some AIDS-related Kaposi's sarcoma cases”.
